Earlier results as cited in PMC3103655 (Journal of natural products, 2011).

Key:
MCF7 breast cancer cells = settings: read-out: IC50, MCF7 breast cancer cells
MOLT-4 leukemia cells = settings: read-out: IC50, MOLT-4 leukemia cells
LoVo cells = settings: 10 μg/mL
KB cells = settings: 10 μg/mL

Which “IC50 values against cancer cells” value (cancer cells) does the source give for dolastatin 10 here?
The value was “pico- to nanomolar”.

What does the source list for hantupeptin A?
IC50 (MCF7 breast cancer cells): 4 µM; IC50 (MOLT-4 leukemia cells): 0.032 µM

With symplostatin 1 as the substance, how does the “IC50 values against cancer cells” value (cancer cells) read?
Its value is “pico- to nanomolar”.

Which “cytotoxicity, LoVo cells” value (LoVo cells) does the source give for trungapeptin A here?
The value was “did not display cytotoxicity”.

And the “cytotoxicity, KB cells” value (KB cells)?
Its value is “did not display cytotoxicity”.
